Read-outs that look alike come from different tables or passages of the source.
Tests used:
[1] = humans, cited from earlier work
[2] = system: LNCAP (human prostate carcinoma); experiment: Cell proliferation response to insulin and IGF-1: LNCAP; format: cell-based; settings: minimal medium, 1 ug/ml insulin or 100 ng/ml IGF-1, 1, 2 and 4 days, data not shown
Procedure: (§1) The cell lines LNCAP, MCF-7, MDA-231, SCK, and HOP-92 were also tested to determine whether the cells increased their proliferation in the presence of insulin or IGF-1. Cells were plated in minimal medium with no addition (negative control), 1 ug/ml insulin, 100 ng/ml IGF-1, or 10% fetal calf serum (positive control), and cell density was monitored at 1, 2, and 4 days after plating. […] (Data not shown).

[3] = system: MCF-7 (human breast carcinoma); experiment: Cell proliferation response to insulin and IGF-1: MCF-7; format: cell-based; settings: MCF-7, minimal medium, 1 ug/ml insulin or 100 ng/ml IGF-1, 1, 2 and 4 days; data not shown
Procedure: as §1

[4] = system: MDA-231 (human breast carcinoma); experiment: Cell proliferation response to insulin and IGF-1: MDA-231; format: cell-based; settings: MDA-231, minimal medium, 1 ug/ml insulin or 100 ng/ml IGF-1, 1, 2 and 4 days; data not shown
Procedure: as §1

[5] = system: SCK (mouse mammary carcinoma); experiment: Cell proliferation response to insulin and IGF-1: SCK; format: cell-based; settings: minimal medium, 1 ug/ml insulin or 100 ng/ml IGF-1, 1, 2 and 4 days, data not shown
Procedure: as §1

[6] = system: LNCAP cells; experiment: LNCAP proliferation in vitro (Example 5, cell counting kit-8)
Procedure: LNCAP cells were plated in a 96-well plate at 3,000 cells per well in RPMI medium supplemented with 10% fetal bovine serum (FBS). After incubation overnight, the medium in the wells was replaced with 100 μl per well of RPMI supplemented with 0.1% FBS. […] After incubation for 4 days, cell proliferation was assayed with the cell counting kit-8 (Dojindo Molecular Technologies, Gaithersburg, Md.).

[7] = system: LNCAP cells; experiment: In vitro proliferation assay, LNCaP (Example 8); format: cell-based, human
Procedure: LNCaP, MCF7 and MCF7-L cell lines were plated, respectively, in a 96-well plate at 5,000 cells per well in RPMI+glutamine+10% FCS medium in 100 μl. After 24 hours, 100 μl fresh medium was added containing no drug (control), IGF-MTX or MTX at the indicated concentration.

[8] = IGF-MTX- and MTX-related toxicity in mice (ill effects, body weight); settings: mouse, in vivo
Procedure: (§2) MCF7 cells (human breast adenocarcinoma cell line) were grown in Eagle's minimal essential medium supplemented with 0.1 mg/ml insulin and 10% FCS. The estrogen-dependent MCF7-L cell line was a gift from Deepali Sachdev of the University of Minnesota. MCF7-L cells were grown in modified IMEM medium (Invitrogen, Carlsbad, Calif., USA) supplemented with 0.1 mg/ml insulin. LNCaP cells (metastatic human prostatic adenocarcinoma) were grown in RPMI supplemented with glutamine and 10% FCS (Invitrogen, Carlsbad, Calif., USA). Cells were grown at 37° C. in a 5% CO2 humidified atmosphere. In each case, cells were grown to approximately two-thirds confluence, harvested by trypsinization, washed with rich medium and then washed twice with PBS and resuspended in phosphate buffered saline in BD matrigel matrix (Becton Dickinson, Franklin Lakes, N.J., USA). Cells were injected intradermally in mice on the back. An estrogen pellet (0.5 mg estradiol, 60-day release, Innovative Research of America, Sarasota, Fla., USA) was implanted subcutaneously between the shoulder blades two days before implanting MCF7 and MCF7-L cells. MCF7 and MCF7-L cells were implanted in 8-week-old female nu/nu mice. LNCaP cells were implanted in 8-week-old male nu/nu mice. […] MTX was dissolved in PBS. Untreated vehicle controls received 2 mM HCl, 1% glycerol. Drug was administered intravenously by tail-vein injection in a volume of 12.5 μl per gram mouse weight. All studies were approved by the University of Minnesota Animal Care and Use Committee and conformed to relevant ethical guidelines.

[9] = system: MCF7-L tumors; experiment: MCF7-L xenograft tumor growth in nu/nu mice; format: in vivo, mouse; settings: day 22; IGF-MTX 10 nmol of MTX/g or free MTX 40 nmol/g, tail vein, days 0 and 5
Procedure: as §2, with “Drug was administered intravenously by tail-vein injection in a volume of 12.5 μl per gram mouse weight. All studies were approved by the University of Minnesota Animal Care and Use Committee and conformed to relevant ethical guidelines.” left out

[10] = system: MCF7 tumors; experiment: MCF7 xenograft tumor growth in nu/nu mice; format: in vivo, mouse
Procedure: as §2
Three in vivo studies were performed to assess the targeting of MTX with long-R3-IGF-1. In the initial preliminary study, breast cancer MCF7 cells were implanted intradermally in the backs of nude mice.

[11] = biological target: T1, IGF-1R (Homo sapiens, UniProt P08069); experiment: Competitive binding assay to IGF-1R on MCF7 cell monolayers; settings: competition against radiolabelled wild-type IGF-1, MCF7 cells
T1 construct: endogenous in cells; host or cells: MCF7 (human breast cancer cell line), near-confluent monolayers
Procedure: MCF7 cells were plated in a 24-well plate and incubated overnight at 37° C. in a 6.5% CO2 humidified atmosphere in DMEM+glutamine with 10% fetal calf serum (FCS) at a cell number to generate close to confluent monolayers. Cells were washed twice and placed in 0.1 M HEPES-NaOH, pH 7.5, 120 mM NaCl, 5 mM KCl, 1.2 mM MgSO4, 0.1% bovine serum albumin (binding buffer). The plate was preincubated at 4° C. for 1 hour. For the assay wells, long-R3-IGF-1 or IGF-MTX conjugate was added at the indicated concentration in binding buffer (positive controls had no addition). I^125-labeled IGF-1 was then added in the amount of 0.03 μCi per well. Plates were incubated at 4° C. overnight, and then washed twice in binding buffer. Cells were lysed with 300 mM NaOH, 1% SDS. The lysate of each well was counted by scintillation counting. Each condition was assayed in duplicate.
A competition binding assay between the IGF-MTX conjugate and radiolabelled IGF-1 was performed as described in the Materials and Methods. MCF7 cells were grown to near confluence, and incubated with unconjugated long-R3-IGF-1 or conjugated IGF-MTX in competition with radiolabelled wild-type IGF-1 (FIG. 9).

[12] = system: LNCAP tumors; experiment: LNCaP xenograft tumor growth in nu/nu mice; format: in vivo, mouse; settings: for fold lower dose at which it is or appears more effective than free MTX: LNCaP xenografts (prostate cancer model in mice)
Procedure: as §2
In a final in vivo study, prostate cancer LNCaP cells were implanted intradermally on day 0 in mice, which were then randomized to different treatment groups.

[13] = system: FSAII tumors; experiment: FSAII tumor growth in vivo in mice; parameters: species or system mouse
Procedure: FSAII testing. Six-week old female mice were injected subcutaneously in the thigh with 200,000 FSAII cells each in serum-free medium. Tumors were allowed to grow until they reached an average volume of 100 mm^3 (calculated as length×breadth^2). At that time, treatment was initiated. […] A fifth group of mice was untreated controls. Each group contained five mice. Mice were treated on days 0, 2, and 5. Tumor growth was measured every second day.

[14] = system: LNCAP tumors; format: in vivo, mouse
Procedure: LNCAP testing. Eight-week old athymic male mice (nu/nu) were injected subcutaneously in the thigh with 1 million LNCAP cells in serum-free medium. Tumors were allowed to grow until they reached an average size of 100 mm^3. […] A fifth group of mice was untreated controls.

[15] = system: type 1 IGF receptor; settings: cited from earlier work
[16] = high dose 60 μmoles/kg methotrexate, intraperitoneally, days 0, 2 and 5
[17] = low dose conjugate vs high dose methotrexate

T1 sequence (P08069 31-736 limits assumed): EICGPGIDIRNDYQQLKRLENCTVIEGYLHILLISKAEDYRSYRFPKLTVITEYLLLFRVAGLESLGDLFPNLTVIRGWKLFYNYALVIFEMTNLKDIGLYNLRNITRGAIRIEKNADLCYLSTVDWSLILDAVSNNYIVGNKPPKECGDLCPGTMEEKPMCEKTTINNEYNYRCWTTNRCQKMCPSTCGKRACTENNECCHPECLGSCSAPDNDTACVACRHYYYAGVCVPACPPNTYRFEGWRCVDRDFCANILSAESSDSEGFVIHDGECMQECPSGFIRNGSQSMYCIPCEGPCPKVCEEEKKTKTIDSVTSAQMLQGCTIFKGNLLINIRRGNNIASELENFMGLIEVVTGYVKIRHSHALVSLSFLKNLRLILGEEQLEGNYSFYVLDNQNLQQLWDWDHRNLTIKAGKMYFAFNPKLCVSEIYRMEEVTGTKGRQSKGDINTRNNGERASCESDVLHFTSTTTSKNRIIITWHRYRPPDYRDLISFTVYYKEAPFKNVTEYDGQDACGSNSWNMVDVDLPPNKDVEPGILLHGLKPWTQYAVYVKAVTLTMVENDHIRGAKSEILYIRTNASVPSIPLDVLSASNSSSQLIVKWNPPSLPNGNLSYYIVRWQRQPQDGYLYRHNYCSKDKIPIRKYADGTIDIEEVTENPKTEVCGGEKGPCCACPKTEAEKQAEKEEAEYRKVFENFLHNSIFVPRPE
T1 sequence (P08069 741-1367 limits assumed): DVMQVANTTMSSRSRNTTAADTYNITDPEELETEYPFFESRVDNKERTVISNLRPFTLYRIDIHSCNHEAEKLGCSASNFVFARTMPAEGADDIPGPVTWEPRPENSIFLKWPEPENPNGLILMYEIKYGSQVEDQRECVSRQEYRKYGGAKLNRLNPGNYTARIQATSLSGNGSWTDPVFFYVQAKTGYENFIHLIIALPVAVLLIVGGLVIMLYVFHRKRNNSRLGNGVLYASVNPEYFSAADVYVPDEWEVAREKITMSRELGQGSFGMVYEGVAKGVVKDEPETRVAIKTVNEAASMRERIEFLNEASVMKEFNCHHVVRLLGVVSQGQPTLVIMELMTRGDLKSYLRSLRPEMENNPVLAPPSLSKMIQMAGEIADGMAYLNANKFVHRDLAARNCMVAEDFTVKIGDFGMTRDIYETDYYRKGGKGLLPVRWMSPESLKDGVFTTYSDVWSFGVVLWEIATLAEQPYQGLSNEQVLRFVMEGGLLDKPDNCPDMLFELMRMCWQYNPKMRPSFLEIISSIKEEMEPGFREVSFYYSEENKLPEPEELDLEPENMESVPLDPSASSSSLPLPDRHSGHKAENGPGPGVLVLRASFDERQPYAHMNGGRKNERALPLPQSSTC

For `CC[C@]1(O)C[C@H]2CN(CCc3c([nH]c4ccccc34)[C@@](C(=O)OC)(c3cc4c(cc3OC)N(C=O)[C@H]3[C@@](O)(C(=O)OC)[C@H](OC(C)=O)[C@]5(CC)C=CCN6CC[C@]43[C@@H]65)C2)C1` [vincristine], the maximum safe dosage ([1]; cumulative per 3 weeks) is given as “about 8 micromoles per meter squared per 3 weeks” and the minimum effective dosage ([1]; lowest dosage usually used) is given as “about 3.25 micromoles per meter squared per 3 weeks”.

In the case of insulin: insulin, the stimulation of proliferation [2] is reported as “stimulated proliferation”, the stimulation of proliferation [3] is reported as “stimulated proliferation” and the stimulation of proliferation [4] is reported as “stimulated proliferation”. The stimulation of proliferation [5] was “stimulated proliferation”.

With IGF-MTX the “Cell number (relative units)” value ([6]; Minimal med. (0.1% FBS), MTX conc. 2 nM) was “.677 ± .057 relative units”, the “Cell number (relative units)” value ([6]; Minimal med. (0.1% FBS), MTX conc. 8 nM) was “.794 ± .028 relative units” and the “Cell number (relative units)” value ([6]; Minimal med. (0.1% FBS), MTX conc. 32 nM) was “.921 ± .014 relative units”. For the same molecule, the “Cell number (relative units)” value ([6]; Minimal med. (0.1% FBS), MTX conc. 125 nM) was “.921 ± .014 relative units”, the “Cell number (relative units)” value ([6]; Minimal med. (0.1% FBS), MTX conc. 500 nM) was “.635 ± .038 relative units” and the “Cell number (relative units)” value ([6]; Minimal med. (0.1% FBS), MTX conc. 2000 nM) was “.255 ± .014 relative units”. For the same molecule, the “Cell number (relative units)” value ([6]; Rich medium (10% FBS), MTX conc. 2 nM) was 0.716 ± .021 relative units, the “Cell number (relative units)” value ([6]; Rich medium (10% FBS), MTX conc. 8 nM) was 0.674 ± .036 relative units and the “Cell number (relative units)” value ([6]; Rich medium (10% FBS), MTX conc. 32 nM) was 1.248 ± .018 relative units. The “Cell number (relative units)” value ([6]; Rich medium (10% FBS), MTX conc. 125 nM) was 0.891 ± .017 relative units, the “Cell number (relative units)” value ([6]; Rich medium (10% FBS), MTX conc. 500 nM) was 0.381 ± .008 relative units and the “Cell number (relative units)” value ([6]; Rich medium (10% FBS), MTX conc. 2000 nM) was 0.234 ± .004 relative units. The “inhibition of proliferation compared to untreated control cells” value ([7]; LNCaP) was “inhibited proliferation of LNCaP cells”, the “higher concentration than free MTX required to achieve the same inhibitory effect” value ([7]; LNCaP cells in vitro) was “about 2 times” and the IC50 ([7]; LNCaP, RPMI + 10% FCS, 48 hours with drug, IGF-MTX as concentration of MTX groups) was ~1 µM. The “Average weight of mice, Day 0” value [8] was 17.8 g, the “Average weight of mice, Day 4” value [8] was 18.6 g and the “Average weight of mice, Day 20” value [8] was 20.1 g. For the same molecule, the “MCF7-L tumor growth inhibition” value [9] was “inhibited about equally”, the MCF7 tumor growth ([10]; 10 nmol of MTX/g intravenous, days 0, 4 and 8, 12 days of observation) was “showed no signs of tumor growth on average” and the “fold lower molar dosage at which more effective than free MTX” value ([10]; MCF7 xenografts) was 4 fold. For the same molecule, the “difference in tumor volume on average between IGF-MTX conjugate-treated group and MTX-treated group” value ([10]; day 12, IGF-MTX 10 nmol of MTX/g vs free MTX 40 nmol/g) was ~8 fold, the “binding to the IGF receptor compared with long-R3-IGF-1” value [11] was “bound more tightly to the IGF receptor than long-R3-IGF-1 at most concentrations” and the “LNCaP tumor growth inhibition” value ([12]; 1.28 nmol/g (as MTX), single tail vein injection on day 5) was “did not inhibit tumor growth”. The “LNCaP tumor size compared to mice treated with higher doses of free MTX (50, 20 or 8 nmol/g)” value ([12]; 3.2 nmol/g (as MTX), single tail vein injection on day 5) was “much smaller”, the “LNCaP tumor size compared to mice treated with higher doses of free MTX (50, 20 or 8 nmol/g)” value ([12]; 8 nmol/g (as MTX), single tail vein injection on day 5) was “much smaller” and the “fold lower dose at which more effective than free MTX (statistically significant)” value ([12]; 8 nmol/g IGF-MTX vs. 50 nmol/g MTX, day 98, listed as IGF-methotrexate conjugate) was 6.5 fold. The “fold lower dose at which it is or appears more effective than free MTX” value ([12]; listed as IGF-MTX conjugate) was “more than 15 fold” and the “fold lower dose at which it is or appears more effective than free MTX” value ([12]; listed as IGF-methotrexate conjugate) was 15 fold.

For “insulin-methotrexate conjugate: approximately 3 MTX attached to each insulin by direct amide bonds to the two alpha amino groups and one lysine side chain”, the “effect on FSAII tumor growth” value [13, 16] was “appeared to very significantly slow tumor growth”, the “toxicity (death of mice)” value [13, 16] was “killed all five mice by one day following the third treatment” and the “effect on FSAII tumor growth” value ([13]; low dose 15 μmoles/kg methotrexate, intraperitoneally, days 0, 2 and 5) was “significantly slowed tumor growth”. The “activity against FSAII tumors in vivo relative to unconjugated methotrexate” value [13, 17] was “at least 4 fold”, the “effect on LNCAP tumor growth” value ([14]; low dose 15 μmoles/kg methotrexate, days 0, 4, 8, 18, 22 and 26) was “appeared to slow tumor growth” and the “lower concentration at which effective against LNCAP tumors relative to unconjugated methotrexate” value [14, 17] was “at least 2.6 times”.

For `O=P1(N(CCCl)CCCl)NCCCO1` (centres unmarked) [cyclophosphamide], the maximum safe dosage [1] is given as “approximately 5 millimoles per meter squared per 3 weeks” and the minimum effective dosage [1] is given as “approximately 3 millimoles per meter squared per 3 weeks”.

With “IGF-1: human insulin-like growth factor-1, SEQ ID NO:1” the stimulation of proliferation [2] was “stimulated proliferation”, the stimulation of proliferation [3] was “stimulated proliferation” and the stimulation of proliferation [4] was “stimulated proliferation”. The stimulation of proliferation [5] was “stimulated proliferation”.

In the case of `CC(=O)O[C@@]12CO[C@@H]1C[C@H](O)[C@@]1(C)C(=O)[C@H](O)C3=C(C)[C@@H](OC(=O)[C@H](O)[C@@H](NC(=O)OC(C)(C)C)c4ccccc4)C[C@@](O)([C@@H](OC(=O)c4ccccc4)[C@H]21)C3(C)C` [docetaxel], the maximum safe dosage ([1]; cumulative per 3 weeks) is listed as “about 120 micromoles per meter squared per 3 weeks” and the minimum effective dosage ([1]; lowest dosage usually used) is listed as “about 70 micromoles per meter squared per 3 weeks”.

For “long-R3-IGF-1: variant of IGF-1, SEQ ID NO:4, reduced binding affinity for soluble IGF binding proteins (GroPep)”, the “binding affinity for the type 1 IGF receptor compared to wild-type IGF-1” value [15] is given as “equal binding affinity”.

For `COc1cccc2c1C(=O)c1c(O)c3c(c(O)c1C2=O)C[C@@](O)(C(=O)CO)C[C@@H]3O[C@H]1C[C@H](N)[C@H](O)[C@H](C)O1` [doxorubicin], the maximum safe dosage ([1]; cumulative per 3 weeks) is listed as “approximately 130 micromoles per meter squared per 3 weeks”, the minimum effective dosage ([1]; lowest dosage usually used) is listed as ~100 micromoles per meter squared per 3 weeks and the minimum effective dosage ([1]; per 3 weeks) is listed as “about 60 mg/m^2”.

Reference: patent US9011880B2, “Compounds and methods for treating cancer” (IGF Oncology, LLC, priority 2003, dated 2015)
